From US20100022521A1, “COMPOUNDS” (Hansa Metallwerke AG, priority 2005, published 2010) come the findings set out here.

The target of assay [1] is T1, rat mGluR1 (Rattus norvegicus, UniProt P23385).
T1 construct: rat cerebellar membrane preparation was used; from tissue; host or cells: rat cerebellum (membrane preparation)
The assay is described as follows: MGluR1 receptor binding test ([3H]R214127 displacement). The settings on record: rat cerebellar membrane; radioligand [3H]R214127 (3 nM); read-out: mGlu1 Ki. As to the method:
MGluR1 Receptor Binding Test
MGluR1 receptor binding testes were performed according to modified method of Lavreysen et al. (Mol. Pharm., 2003, 63, 1082). Based on the high homology between the human and rat mGluR1 receptors, rat cerebellar membrane preparation was used to determine the binding characteristics of reference compounds and novel compounds to the rat mGluR1. As radioligand [3H]R214127 (3 nM) was used and the nonspecific binding was determined in the presence of 1 μM of R214127.
IC-50 values were determined from displacement curves by nonlinear regression analysis and were converted by equation method of Cheng and Prusoff (Biochem. Pharmacol., 1973, 22, 3099) to Ki values.

Assay [2] deals with mGluR5 (UniProt P31424). The assay is described as follows: MGluR5 receptor binding test ([3H]-M-MPEP displacement). Details: species or system rat. As to conditions: radioligand [3H]-M-MPEP (2 nM); species not given; read-out: mGlu5 Ki.

T1 sequence (P23385 19-1199): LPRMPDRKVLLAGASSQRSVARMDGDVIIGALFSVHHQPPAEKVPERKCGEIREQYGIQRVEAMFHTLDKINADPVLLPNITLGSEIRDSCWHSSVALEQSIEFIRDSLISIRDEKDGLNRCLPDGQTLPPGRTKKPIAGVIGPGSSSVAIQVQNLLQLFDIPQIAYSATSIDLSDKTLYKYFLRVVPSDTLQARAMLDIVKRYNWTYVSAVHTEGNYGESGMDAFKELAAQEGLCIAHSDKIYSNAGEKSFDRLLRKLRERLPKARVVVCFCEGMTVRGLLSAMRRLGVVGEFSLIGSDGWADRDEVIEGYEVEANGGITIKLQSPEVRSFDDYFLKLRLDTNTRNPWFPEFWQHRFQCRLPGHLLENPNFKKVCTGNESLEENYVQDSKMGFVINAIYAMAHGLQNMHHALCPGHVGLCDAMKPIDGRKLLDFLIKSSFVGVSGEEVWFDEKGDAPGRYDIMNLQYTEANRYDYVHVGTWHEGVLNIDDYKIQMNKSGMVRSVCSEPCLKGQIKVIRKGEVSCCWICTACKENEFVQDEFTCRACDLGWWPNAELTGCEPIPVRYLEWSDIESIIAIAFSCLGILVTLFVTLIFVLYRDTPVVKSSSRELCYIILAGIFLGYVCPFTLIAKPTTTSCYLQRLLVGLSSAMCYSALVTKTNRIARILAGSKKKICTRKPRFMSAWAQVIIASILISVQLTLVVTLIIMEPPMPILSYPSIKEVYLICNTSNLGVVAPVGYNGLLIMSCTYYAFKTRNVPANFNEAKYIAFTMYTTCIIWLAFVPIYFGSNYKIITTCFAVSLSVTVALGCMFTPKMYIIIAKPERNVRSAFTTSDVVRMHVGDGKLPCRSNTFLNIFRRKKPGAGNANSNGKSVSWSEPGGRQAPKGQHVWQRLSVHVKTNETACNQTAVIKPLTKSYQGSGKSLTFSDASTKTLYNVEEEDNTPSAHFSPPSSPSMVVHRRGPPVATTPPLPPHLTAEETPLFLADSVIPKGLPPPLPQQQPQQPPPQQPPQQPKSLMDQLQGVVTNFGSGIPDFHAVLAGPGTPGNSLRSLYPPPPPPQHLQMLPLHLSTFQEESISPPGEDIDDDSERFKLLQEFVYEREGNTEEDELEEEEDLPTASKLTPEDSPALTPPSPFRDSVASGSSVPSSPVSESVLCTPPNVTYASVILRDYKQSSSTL

By Ki is commonly meant a dissociation constant, usually derived from enzyme kinetics or from competition with a known ligand. In the case of `N#Cc1cc(F)cc(S(=O)(=O)c2sc3nc(F)ccc3c2-c2ccc(Cl)cc2)c1` [Compound 90, 2-(3-Cyano-5-fluoro-benzenesulfonyl)-3-(4-chloro-phenyl)-6-fluoro-thieno[2,3-b]pyridine], the Ki in assay [1] was > 1.5 µM; in assay [2], < 0.5 µM.

Regarding `COc1ccc(S(=O)(=O)c2sc3ncccc3c2-c2ccc(Cl)cc2)cc1F` [Compound 91], the Ki in assay [1] was 0.5 to 1.5 µM; in assay [2] it was < 0.5 µM.
